Measured values as given in article PMC11011439, “Influence of Molecular Design on the Tumor Targeting and Biodistribution of PSMA-Binding Tracers Labeled with Technetium-99m” (International Journal of Molecular Sciences, 2024).

How the values were obtained:
[1] = of the [99mTc]Tc-labeled ligand; cited from earlier work
PSMA = biological target: T1, PSMA (Homo sapiens, UniProt Q04609); assay: Real-time binding kinetics on living PC3-pip cells (LigandTracer Yellow); conditions: 5 nM tracer, 1:2 interaction model; for Kd: read-out: KD1
T1 construct: expressed in transfected cells; host or cells: PC3-pip cells (from Prof. Martin G. Pomper, Johns Hopkins University)
T1 sequence (Q04609 whole entry): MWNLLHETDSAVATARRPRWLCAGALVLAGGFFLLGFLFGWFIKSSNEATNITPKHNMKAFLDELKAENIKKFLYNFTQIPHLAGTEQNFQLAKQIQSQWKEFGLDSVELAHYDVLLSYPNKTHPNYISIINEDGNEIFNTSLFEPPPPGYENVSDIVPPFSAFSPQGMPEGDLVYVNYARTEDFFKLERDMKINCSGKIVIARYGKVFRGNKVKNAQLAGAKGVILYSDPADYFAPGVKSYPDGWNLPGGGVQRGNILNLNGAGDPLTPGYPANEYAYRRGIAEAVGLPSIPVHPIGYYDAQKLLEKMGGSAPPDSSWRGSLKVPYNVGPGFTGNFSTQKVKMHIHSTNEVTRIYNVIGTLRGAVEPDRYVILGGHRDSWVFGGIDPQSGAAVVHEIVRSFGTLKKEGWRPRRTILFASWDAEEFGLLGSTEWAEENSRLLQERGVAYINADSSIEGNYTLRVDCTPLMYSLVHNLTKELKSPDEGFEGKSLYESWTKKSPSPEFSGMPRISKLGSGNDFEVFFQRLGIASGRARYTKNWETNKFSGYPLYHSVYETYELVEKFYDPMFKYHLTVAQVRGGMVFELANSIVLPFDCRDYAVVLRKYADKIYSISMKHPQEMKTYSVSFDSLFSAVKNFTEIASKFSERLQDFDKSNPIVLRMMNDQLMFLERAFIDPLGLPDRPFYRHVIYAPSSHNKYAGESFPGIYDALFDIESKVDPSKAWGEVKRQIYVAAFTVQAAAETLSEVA
Protocol: The binding kinetics of [^99mTc]Tc-labeled BQ0411, BQ0412, and BQ0413 were measured in real time using LigandTracer Yellow Instruments (Ridgeview Instruments AB, Uppsala, Sweden) on PC3-pip cells, as described earlier. The activity binding was recorded at 5 nM on the radiolabeled tracers for 150 min. After measuring the binding kinetics, the medium containing the labeled tracer was replaced with fresh medium, and the dissociation was monitored over 7 h. […]

[2] = Biodistribution in NMRI mice; format: in vivo; conditions: for activity in carcass / activity in intestines with content / uptake in blood / uptake in kidney / uptake in liver / uptake in lung / uptake in salivary glands / uptake in spleen / uptake in stomach: 40 pmol/mouse iv
Protocol: Four NMRI mice were intravenously injected with 40 pmol of the radiotracer (60 kBq, the mass of the injected compound was adjusted with an unlabeled tracer). The mice were euthanized with a lethal intraperitoneal injection of ketamine/xylazine, followed by exsanguination at 3 and 24 h post-injection (pi). The organs of interest were collected, weighed, and measured for their activity content using a gamma counter. The uptake activity in organs was calculated as the percentage of injected activity per gram (%IA/g) for the blood, salivary glands, lungs, liver, spleen, stomach, and kidneys and as %IA for the remaining carcass and the rest of the intestines with content.

[3] = Octanol/water distribution coefficient (LogD); format: physicochemical; conditions: n-octanol / Milli-Q water
Protocol: The LogD was determined experimentally based on the procedure described earlier. Briefly, the radiolabeled compound of interest was added to a LoBind Eppendorf tube (Eppendorf, Hamburg, Germany) containing Milli-Q water (500 μL) and n-octanol (500 μL), and the mixture was vortexed and centrifuged. Thereafter, three fractions from each phase were collected and the activity was measured using a gamma counter. The LogD was calculated by dividing the average activity measured in octanol by the average activity measured in water.

[4] = system: PSMA-expressing prostate cancer xenografts (PC3-pip); assay: Biodistribution and tumor targeting in PC3-pip tumor-bearing mice; format: in vivo, BALB/c nu/nu mice; conditions: 3 h pi
Protocol: PSMA-expressing prostate cancer xenografts were implanted in BALB/c nu/nu mice by subcutaneous injection of PC3-pip cell suspension in PBS (10^7 cells/animal in 100 µL). The average tumor weight was 0.3 ± 0.2 g at the time of the experiment. Four mice per data point were used. Mice were intravenously injected with 5 nmol of the radiotracer (60 kBq, the mass of the injected compound was adjusted with an unlabeled tracer). The mice were euthanized 3 h pi, and the samples were treated as described above.

## CC(=O)N[C@@H](CCCCNC(=O)CNC(=O)CNC(=O)CNC(=O)CNC(=O)CS)C(=O)NCCCCCCCC(=O)N[C@@H](Cc1ccc(O)cc1)C(=O)N[C@@H](Cc1ccc2ccccc2c1)C(=O)NCCCC[C@H](NC(=O)N[C@@H](CCC(=O)O)C(=O)O)C(=O)O [BQ0411]
[1]
  overall charge: −1

## CC(=O)N[C@@H](CCCCNC(=O)CNC(=O)CNC(=O)CNC(=O)CS)C(=O)NCCCCCCCC(=O)N[C@@H](Cc1ccc(O)cc1)C(=O)N[C@@H](Cc1ccc2ccccc2c1)C(=O)NCCCC[C@H](NC(=O)N[C@@H](CCC(=O)O)C(=O)O)C(=O)O [BQ0412]
[1]
  overall charge: −1

## CC(=O)N[C@@H](CCCCNC(=O)CNC(=O)C(CCC(=O)O)NC(=O)C(CCC(=O)O)NC(=O)C(CCC(=O)O)NC(=O)CS)C(=O)NCCCCCCCC(=O)N[C@@H](Cc1ccc(O)cc1)C(=O)N[C@@H](Cc1ccc2ccccc2c1)C(=O)NCCCC[C@H](NC(=O)N[C@@H](CCC(=O)O)C(=O)O)C(=O)O (stereo partly drawn) [BQ0413]
[1]
  overall charge: −4

## CC(=O)NC(CCCCNC(=O)CNC(=O)C[N]1C(=O)C[N]2C(=O)C[N]3C(=O)C[S][TcH]132=[O])C(=O)NCCCCCCCC(=O)NC(Cc1ccc(O)cc1)C(=O)NC(Cc1ccc2ccccc2c1)C(=O)NCCCCC(NC(=O)NC(CCC(=O)O)C(=O)O)C(=O)O (stereo not drawn) [[^99mTc]Tc-BQ0411]
PSMA
  Kd: 0.604 nM

## CC(=O)N[C@@H](CCCCNC(=O)C[N]1C(=O)C[N]2C(=O)C[N]3C(=O)C[S][TcH]132=[O])C(=O)NCCCCCCCC(=O)N[C@@H](Cc1ccc(O)cc1)C(=O)N[C@@H](Cc1ccc2ccccc2c1)C(=O)NCCCC[C@H](NC(=O)N[C@@H](CCC(=O)O)C(=O)O)C(=O)O [[^99mTc]Tc-BQ0412]
PSMA
  Kd: 0.44 nM

## CC(=O)N[C@@H](CCCCNC(=O)CNC(=O)C(CCC(=O)O)[N]1C(=O)C(CCC(=O)O)[N]2C(=O)C(CCC(=O)O)[N]3C(=O)C[S][99Tc-]312=[O])C(=O)NCCCCCCCC(=O)N[C@@H](Cc1ccc(O)cc1)C(=O)N[C@@H](Cc1ccc2ccccc2c1)C(=O)NCCCC[C@H](NC(=O)N[C@@H](CCC(=O)O)C(=O)O)C(=O)O (stereo partly drawn) [[^99mTc]Tc-BQ0413]
PSMA
  ka1: 33000 M⁻¹ s⁻¹
  ka2: 2.9e+08 M⁻¹ s⁻¹
  kd1: 2.9e-06 s⁻¹
  kd2: 2.3e-09 s⁻¹
[2]; 3 h pi
  activity in carcass: 9 ± 1 %IA/sample
  activity in intestines with content: 3.8 ± 0.4 %IA/sample
  uptake in blood: 0.5 ± 0.1 %IA/g
  uptake in kidney: 242 ± 43 %IA/g
  uptake in liver: 0.7 ± 0.1 %IA/g
  uptake in lung: 1.0 ± 0.3 %IA/g
  uptake in salivary glands: 3.0 ± 0.1 %IA/g
  uptake in spleen: 1.2 ± 0.3 %IA/g
  uptake in stomach: 3.1 ± 0.5 %IA/g
[2]; 24 h pi
  activity in carcass: 1.4 ± 0.2 %IA/sample
  activity in intestines with content: 0.5 ± 0.2 %IA/sample
  uptake in blood: 0.05 ± 0.01 %IA/g
  uptake in kidney: 56 ± 14 %IA/g
  uptake in liver: 0.21 ± 0.03 %IA/g
  uptake in lung: 0.18 ± 0.03 %IA/g
  uptake in salivary glands: 0.30 ± 0.01 %IA/g
  uptake in spleen: 0.3 ± 0.2 %IA/g
  uptake in stomach: 1.0 ± 0.5 %IA/g
[2]; 24 h pi compared to 3 h pi
  washout of activity from kidneys: 77%
[3]
  logD (octanol–water distribution coefficient): −2.5 ± 0.1
[4]; 5 nmol/mouse iv
  activity in carcass: 1.7 ± 0.3 %IA/sample
  activity in intestines with content: 1.7 ± 0.2 %IA/sample
  uptake in blood: 0.17 ± 0.04 %IA/g
  uptake in bone: 0.2 ± 0.1 %IA/g
  uptake in kidney: 9 ± 2 %IA/g
  uptake in liver: 0.3 ± 0.1 %IA/g
  uptake in lung: 0.3 ± 0.1 %IA/g
  uptake in muscle: 0.06 ± 0.02 %IA/g
  uptake in pancreas: 0.13 ± 0.02 %IA/g
  uptake in salivary glands: 0.5 ± 0.1 %IA/g
  uptake in small intestine: 0.2 ± 0.1 %IA/g
  uptake in spleen: 0.9 ± 0.5 %IA/g
  uptake in stomach: 0.6 ± 0.2 %IA/g
  uptake in tumor: 17 ± 3 %IA/g
[4]; 5 nmol/mouse
  tumor-to-blood ratio: 94 ± 3
  tumor-to-bone ratio: 114 ± 29
  tumor-to-liver ratio: 48 ± 5
  tumor-to-lung ratio: 52 ± 8
  tumor-to-muscle ratio: 284 ± 19
  tumor-to-pancreas ratio: 137 ± 10
  tumor-to-salivary ratio: 31 ± 3
  tumor-to-small intestine ratio: 126 ± 57
  tumor-to-spleen ratio: 16 ± 4
  tumor-to-stomach ratio: 24 ± 2

## CC(=O)N[C@@H](CCCCNC(=O)CNC(=O)C(CCC(=O)O)[N]1C(=O)C(CCC(=O)O)[N]2C(=O)C(CCC(=O)O)[N]3C(=O)C[S][TcH]312=[O])C(=O)NCCCCCCCC(=O)N[C@@H](Cc1ccc(O)cc1)C(=O)N[C@@H](Cc1ccc2ccccc2c1)C(=O)NCCCC[C@H](NC(=O)N[C@@H](CCC(=O)O)C(=O)O)C(=O)O (stereo partly drawn) [[^99mTc]Tc-BQ0413]
PSMA
  Kd: 0.089 nM
